Experimental data from publication PMC8986608 (Journal of the American Chemical Society, 2022).

Biological target: ScoE (Streptomyces coeruleorubidus, UniProt A0A3B6UEU3)
Details: alpha-KG, Fe(II)

Km: 369 ± 40 µM
Compound: C[C@H](CC(=O)O)/N=C/C(=O)O [compound 2, imine CABA]
